System: male spontaneously hypertensive rats
Experiment: Decrease in systolic blood pressure in spontaneously hypertensive rats after intravenous bolus injection, indirect (tail-cuff) method
Format: in vivo, rat
Conditions: for Decrease in systolic blood pressure (mmHg) time after administration (hour) 0.5: 0.5 hour after administration; for Decrease in systolic blood pressure (mmHg) time after administration (hour) 4: 4 hours after administration
Procedure: As test animals, four male spontaneously hypertensive rats (weight 400 to 440 g) that were sufficiently adapted for feeding and in which hypertension was confirmed were used.
Physiological saline aqueous solution containing 2.5% Nicolle and 2.5% ethanol of sample was intravenously administered by bolus injection at a dose of 1 ml per 1 kg of body weight. Systolic blood pressure after administration was measured by the indirect (tail-cuff) method.

## Cl.Cl.Nc1cccc(CCCN2CCC(=C3c4ccccc4C=Cc4ccccc43)CC2)c1 [Example 315, 1-(3-Aminophenyl)-3-(4-(5H-dibenzo[a,d]cyclohepten-5-ylidene)-1-piperidinyl)propane dihydrochloride]
Dose 10 mg/kg i.v. bolus
  Decrease in systolic blood pressure (mmHg) time after administration (hour) 0.5: −43 mmHg
  Decrease in systolic blood pressure (mmHg) time after administration (hour) 4: −3 mmHg

## COc1cc2c(cc1OC)CC(CN1CCC(=C3c4ccccc4C=Cc4ccccc43)CC1)C2.Cl [Example 287, 2-(4-(5H-Dibenzo[a,d]cyclohepten-5-ylidene)-1-piperidinyl)methyl-5′,6′-dimethoxyindan hydrochloride]
Dose 10 mg/kg i.v. bolus
  Decrease in systolic blood pressure (mmHg) time after administration (hour) 0.5: −83 mmHg
  Decrease in systolic blood pressure (mmHg) time after administration (hour) 4: −16 mmHg

## Cl.O=C1CCCC(CCCCN2CCC(=C3c4ccccc4C=Cc4ccccc43)CC2)C1 (stereo not drawn) [Example 301, 3-(4-(4-(5H-Dibenzo[a,d]cyclohepten-5-ylidene)-1-piperidinyl)-1-butyl)cyclohexanoe hydrochloride]
Dose 10 mg/kg i.v. bolus
  Decrease in systolic blood pressure (mmHg) time after administration (hour) 0.5: −100 mmHg
  Decrease in systolic blood pressure (mmHg) time after administration (hour) 4: −12 mmHg

## COc1cccc(C=CCN2CCC(=C3c4ccccc4C=Cc4ccccc43)CC2)c1[N+](=O)[O-].Cl [Example 377]
Dose 1 mg/kg i.v. bolus
  Decrease in systolic blood pressure (mmHg) time after administration (hour) 0.5: −151 mmHg
  Decrease in systolic blood pressure (mmHg) time after administration (hour) 4: −73 mmHg

## 1-(4-Acetylaminominocinnamyl)-4-(5H-Dibenzo[a,d]thiepiz-5-ylidene)-1-piperidine hydrochloride [Example 327]
Dose 3 mg/kg i.v. bolus
  Decrease in systolic blood pressure (mmHg) time after administration (hour) 0.5: −10 mmHg
  Decrease in systolic blood pressure (mmHg) time after administration (hour) 4: −43 mmHg

## COc1ccc(OC)c(C=CCN2CCC(=C3c4ccccc4C=Cc4ccccc43)CC2)c1.Cl [Example 343, 4-(5H-Dibenzo[a,d]cyclohepten-5-ylidene)-1-(2,5-dimethoxycinnamyl)piperidine hydrochloride]
Dose 3 mg/kg i.v. bolus
  Decrease in systolic blood pressure (mmHg) time after administration (hour) 0.5: −83 mmHg
  Decrease in systolic blood pressure (mmHg) time after administration (hour) 4: −45 mmHg

## COc1cc(C=CCN2CCC(=C3c4ccccc4C=Cc4ccccc43)CC2)ccc1OC(C)=O.Cl [Example 366, 1-(4-Acetoxy-3-methoxycinnamyl)-4-(5H-Dibenzo[a,d]cyclohepten-5-ylidene)-1-piperidine hydrochloride]
Dose 3 mg/kg i.v. bolus
  Decrease in systolic blood pressure (mmHg) time after administration (hour) 0.5: −152 mmHg
  Decrease in systolic blood pressure (mmHg) time after administration (hour) 4: −113 mmHg

## COc1cccc(C=CCN2CCC(=C3c4ccccc4C=Cc4ccccc43)CC2)c1.Cl [Example 348, 4-(5H-Dibenzo[a,d]cyclohepten-5-ylidene)-1-(3-methoxycinnamyl)piperidine hydrochloride]
Dose 3 mg/kg i.v. bolus
  Decrease in systolic blood pressure (mmHg) time after administration (hour) 0.5: −105 mmHg
  Decrease in systolic blood pressure (mmHg) time after administration (hour) 4: −12 mmHg

## COc1ccc(C(=O)CCCCN2CCC(=C3c4ccccc4C=Cc4ccccc43)CC2)cc1OC.Cl [Example 169, 5-(4-(5H-Dibenzo[a,d]cyclohepten-5-ylidene)-1-piperidinyl)-3′,4′-dimethoxyvalerophenone hydrochloride]
Dose 10 mg/kg i.v. bolus
  Decrease in systolic blood pressure (mmHg) time after administration (hour) 0.5: −130 mmHg
  Decrease in systolic blood pressure (mmHg) time after administration (hour) 4: −4 mmHg

## 2,6-Dimethyl-4-(4-(4-(5H-dibenzo[a,d]cyclohepten-5-ylidene)-1-piperidinyl)butyl)-5-methyl-1,4-dihydropyrydine-3,5-dicarboxylate hydrochloride [Example 285]
Dose 10 mg/kg i.v. bolus
  Decrease in systolic blood pressure (mmHg) time after administration (hour) 0.5: −62 mmHg
  Decrease in systolic blood pressure (mmHg) time after administration (hour) 4: −7 mmHg

## CC(=O)N(CCCN1CCC(=C2c3ccccc3C=Cc3ccccc32)CC1)C1CCCCC1.Cl [Example 267, N-Acetyl-N-(3-4-(5H-Dibenzo[a,d]cyclohepten-5-ylidene)-1-piperidinyl)-1-propylcyclohexylamine hydrochloride]
Dose 10 mg/kg i.v. bolus
  Decrease in systolic blood pressure (mmHg) time after administration (hour) 0.5: −40 mmHg
  Decrease in systolic blood pressure (mmHg) time after administration (hour) 4: 0 mmHg

## 5-(4-(5H-Dibenzo[a,d]cyclohepten-5-ylidene)-1-piperidinyl)-2-isopropyl-2-phenylvaleronitrile hydrochloride [Example 122]
Dose 10 mg/kg i.v. bolus
  Decrease in systolic blood pressure (mmHg) time after administration (hour) 0.5: −120 mmHg
  Decrease in systolic blood pressure (mmHg) time after administration (hour) 4: −62 mmHg

## Cl.Oc1cccc(C=CCN2CCC(=C3c4ccccc4C=Cc4ccccc43)CC2)c1 [Example 367, 4-(5H-Dibenzo[a,d]cyclohepten-5-ylidene)-1-(3-hydroxycinnamyl)piperidine hydrochloride]
Dose 10 mg/kg i.v. bolus
  Decrease in systolic blood pressure (mmHg) time after administration (hour) 0.5: −98 mmHg
  Decrease in systolic blood pressure (mmHg) time after administration (hour) 4: −63 mmHg

## Cl.O=C(C=Cc1ccccc1)Nc1ccccc1SCCCN1CCC(=C2c3ccccc3C=Cc3ccccc32)CC1 [Example 37, 1-(3-(2-Cinnamoylaminophenylthio)-1-propyl)-4-(5H-dibenzo[a,d]-cyclohepten-5-ylidene)piperidine hydrochloride]
Dose 10 mg/kg i.v. bolus
  Decrease in systolic blood pressure (mmHg) time after administration (hour) 0.5: −78 mmHg
  Decrease in systolic blood pressure (mmHg) time after administration (hour) 4: −36 mmHg

## 2-(2-4-Dibenzo[a,d]cyclohepten-5-ylidene)-1-piperidinyl)-1-ethyl)-5′,6′-dimethoxy-1-indanone hydrochloride [Example 261]
Dose 10 mg/kg i.v. bolus
  Decrease in systolic blood pressure (mmHg) time after administration (hour) 0.5: −123 mmHg
  Decrease in systolic blood pressure (mmHg) time after administration (hour) 4: −11 mmHg

## Cl.O=[N+]([O-])c1ccccc1CCCN1CCC(=C2c3ccccc3C=Cc3ccccc32)CC1 [Example 250, 3-(4-(5H-Dibenzo[a,d]cyclohepten-5-ylidene)-1-piperidinyl)-1-(2-nitrophenyl)propane hydrochloride]
Dose 10 mg/kg i.v. bolus
  Decrease in systolic blood pressure (mmHg) time after administration (hour) 0.5: −136 mmHg
  Decrease in systolic blood pressure (mmHg) time after administration (hour) 4: −30 mmHg

## 3-(4-(5H-Dibenzo[a,d]cyclohepten-5-ylidene)-1-piperidinyl)-1-(2-pyridyl)-1-propane hydrochloride [Example 284]
Dose 3 mg/kg i.v. bolus
  Decrease in systolic blood pressure (mmHg) time after administration (hour) 0.5: −151 mmHg
  Decrease in systolic blood pressure (mmHg) time after administration (hour) 4: −40 mmHg

## Cl.N#Cc1cccc(CN2CCC(=C3c4ccccc4C=Cc4ccccc43)CC2)c1 [Example 159, 1-(3-Cyanobenzyl)-4-(5H-dibenzo[a,d]cyclohepten-5-ylidene)piperidine hydrochloride]
Dose 10 mg/kg i.v. bolus
  Decrease in systolic blood pressure (mmHg) time after administration (hour) 0.5: −27 mmHg
  Decrease in systolic blood pressure (mmHg) time after administration (hour) 4: −12 mmHg

## C1=Cc2ccccc2C(=C2CCN(Cc3ccccc3)CC2)c2ccccc21.Cl [Example 12, 1-Benzyl-4-(5H-dibenzo[a,d]cyclohepten-5-ylidene)piperidine hydrochloride]
Dose 10 mg/kg i.v. bolus
  Decrease in systolic blood pressure (mmHg) time after administration (hour) 0.5: −27 mmHg
  Decrease in systolic blood pressure (mmHg) time after administration (hour) 4: 1 mmHg

## COc1ccc(C(=O)CCCN2CCC(=C3c4ccccc4CCc4ccccc43)CC2)cc1OC.Cl [Example 187, 4-(4-(10,11-Dihydro-5H-dibenzo[a,d]cyclohepten-5-ylidene)-1-piperidinyl)-3′,4′-dimethoxy-butyrophenone hydrochloride]
Dose 10 mg/kg i.v. bolus
  Decrease in systolic blood pressure (mmHg) time after administration (hour) 0.5: −47 mmHg
  Decrease in systolic blood pressure (mmHg) time after administration (hour) 4: −9 mmHg

## Cl.O=[N+]([O-])c1ccccc1C=CCN1CCC(=C2c3ccccc3C=Cc3ccccc32)CC1 [Example 302, 4-(5H-Dibenzo[a,d]cyclohepten-5-ylidene)-1-(2-nitrocinnamyl)piperidinyl hydrochloride]
Dose 10 mg/kg i.v. bolus
  Decrease in systolic blood pressure (mmHg) time after administration (hour) 0.5: −83 mmHg
  Decrease in systolic blood pressure (mmHg) time after administration (hour) 4: −41 mmHg

## CC(=O)Oc1cccc(C=CCN2CCC(=C3c4ccccc4C=Cc4ccccc43)CC2)c1.Cl [Example 368, 1-(3-Acetoxycinnamyl)-4-(5H-Dibenzo[a,d]cyclohepten-5-ylidene)piperidine hydrochloride]
Dose 3 mg/kg i.v. bolus
  Decrease in systolic blood pressure (mmHg) time after administration (hour) 0.5: −110 mmHg
  Decrease in systolic blood pressure (mmHg) time after administration (hour) 4: −68 mmHg

## O=C(CCCC1CCCCC1)N1CCC(=C2c3ccccc3C=Cc3ccccc32)CC1 [Example 157, 1-(4-Cyclohexylbutanoyl)-4-(5H-dibenzo[a,d]cyclohepten-5-ylidene)piperidine]
Dose 10 mg/kg i.v. bolus
  Decrease in systolic blood pressure (mmHg) time after administration (hour) 0.5: −32 mmHg
  Decrease in systolic blood pressure (mmHg) time after administration (hour) 4: −13 mmHg

## COC(=O)C1(CCCN2CCC(=C3c4ccccc4C=Cc4ccccc43)CC2)CCCCC1.Cl [Example 314, 1-(3-(4-(5H-Dibenzo[a,d]cyclohepten-5-ylidene)-1-piperidinyl)-1-propyl)-1-methoxycarbonylcyclohexane hydrochloride]
Dose 10 mg/kg i.v. bolus
  Decrease in systolic blood pressure (mmHg) time after administration (hour) 0.5: −61 mmHg
  Decrease in systolic blood pressure (mmHg) time after administration (hour) 4: −11 mmHg

## COc1ccc(CCCN2CCC(=C3c4ccccc4C=Cc4ccccc43)CC2)cc1OC.Cl [Example 201, 4-(5H-Dibenzo[a,d]cyclohepten-5-ylidene)-1-(-3-(3′,4′-dimethoxyphenyl)propyl)piperidine hydrochloride]
Dose 10 mg/kg i.v. bolus
  Decrease in systolic blood pressure (mmHg) time after administration (hour) 0.5: −118 mmHg
  Decrease in systolic blood pressure (mmHg) time after administration (hour) 4: −21 mmHg

## C1=Cc2ccccc2C(=C2CCN(CCCCCc3ccccc3)CC2)c2ccccc21.Cl [Example 16, 5-(4-(5H-Dibenzo[a,d]cyclohepten-5-ylidene)-1-piperidinyl)-1-phenylpentane hydrochloride]
Dose 10 mg/kg i.v. bolus
  Decrease in systolic blood pressure (mmHg) time after administration (hour) 0.5: −114 mmHg
  Decrease in systolic blood pressure (mmHg) time after administration (hour) 4: −30 mmHg

## CCC(CCN1CCC(=C2c3ccccc3C=Cc3ccccc32)CC1)C(=O)c1ccc(OC)c(OC)c1.Cl (stereo not drawn) [Example 278, 4-(4-(5H-dibenzo[a,d]cyclohepten-5-ylidene)-1-piperidinyl)-2-ethyl-3′,4′-dimethoxybutyrophenone hydrochloride]
Dose 10 mg/kg i.v. bolus
  Decrease in systolic blood pressure (mmHg) time after administration (hour) 0.5: −64 mmHg
  Decrease in systolic blood pressure (mmHg) time after administration (hour) 4: 2 mmHg

From patent USRE38257E1, “Piperdine derivatives and hypotensives containing the same” (Ajinomoto Co., Inc., priority 1988, dated 2003)
